What all share (format): cell-based
One assay has as its target T1, PPAR alpha (Homo sapiens, UniProt Q07869).
T1 construct: expressed in transfected cells; host or cells: HEK293
T1 sequence (Q07869 239-466 limits assumed): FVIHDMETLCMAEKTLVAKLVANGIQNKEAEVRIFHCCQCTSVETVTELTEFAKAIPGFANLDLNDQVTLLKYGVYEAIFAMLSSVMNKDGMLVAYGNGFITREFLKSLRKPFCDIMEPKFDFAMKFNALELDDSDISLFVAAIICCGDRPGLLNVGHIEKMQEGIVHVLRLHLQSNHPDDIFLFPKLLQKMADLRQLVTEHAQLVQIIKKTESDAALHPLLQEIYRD
The assay can be described thus: Transfection assay for PPAR receptors (GAL4-LBD luciferase reporter), PPAR alpha. The following applies: 18–24 hrs. The protocol: (§1) Transfection Assay Method for PPAR Receptors
(§2) HEK293 cells were grown in DMEM/F12 medium supplemented with 10% FBS and glutamine (Invitrogen) and incubated in a 5% CO2 incubator at 37° C. The cells were co-transfected using DMRIE-C reagent (Invitrogen) in serum free medium (Opti-MEM, Invitrogen) with two mammalian expression plasmids, one containing the DNA sequence coding for the ligand binding domains of either PPARαg or d fused to the yeast GAL4 DNA binding domain and the other containing the promoter sequence of the yeast GAL4 (UAS) fused to the firefly luciferase cDNA reporter. The next day, the medium was changed to DMEM/F12 medium supplemented with 5% charcoal treated serum (Hyclone) and glutamine. After 6 hrs the cells were trypsinized and seeded at a density of 50,000 cells/well into 96 well plates and incubated overnight as above. The cells were then treated with -test compounds or vehicle and incubated for 18–24 hrs as above. Luciferase reporter activity was measured using the Steady-Glo Luciferase Assay Kit from Promega. DMRIE-C Reagent was purchased from GIBCO Cat. No.10459-014. OPTI-MEM I Reduced Serum Medium was purchased from GIBCO (Cat. No. 31985). Steady-Glo Luciferase Assay Kit was purchased from Promega (Part#E254B).
A variety of example compounds have been made and tested, with a range of in vitro results. Below are representative compounds and data; in some cases, where multiple EC50's are shown, multiple measurements were taken. Naturally, different compounds in Formula (I) may have not have activities identical to any one compound below.

A further assay addresses T2, PPAR delta (Homo sapiens, UniProt Q03181).
T2 construct: expressed in transfected cells; host or cells: HEK293
T2 sequence (Q03181 211-439 limits assumed): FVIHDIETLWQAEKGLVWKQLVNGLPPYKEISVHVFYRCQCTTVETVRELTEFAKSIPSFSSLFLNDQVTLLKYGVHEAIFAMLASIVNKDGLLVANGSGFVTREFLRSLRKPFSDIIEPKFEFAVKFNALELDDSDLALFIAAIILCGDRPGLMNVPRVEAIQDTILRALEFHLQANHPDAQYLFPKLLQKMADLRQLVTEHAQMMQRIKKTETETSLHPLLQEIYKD
Nature of the assay: Transfection assay for PPAR receptors (GAL4-LBD luciferase reporter), PPAR delta. The following applies: Table 1; HEK293 cells co-transfected with PPAR LBD-GAL4 and GAL4 (UAS) luciferase reporter, 18–24 hrs. The protocol:
as §1
as §2, with “OPTI-MEM I Reduced Serum Medium was purchased from GIBCO (Cat. No. 31985).” left out

In a further assay the target is T3, PPAR gamma (Homo sapiens, UniProt P37231).
T3 construct: expressed in transfected cells; host or cells: HEK293
T3 sequence (P37231 238-503 limits assumed): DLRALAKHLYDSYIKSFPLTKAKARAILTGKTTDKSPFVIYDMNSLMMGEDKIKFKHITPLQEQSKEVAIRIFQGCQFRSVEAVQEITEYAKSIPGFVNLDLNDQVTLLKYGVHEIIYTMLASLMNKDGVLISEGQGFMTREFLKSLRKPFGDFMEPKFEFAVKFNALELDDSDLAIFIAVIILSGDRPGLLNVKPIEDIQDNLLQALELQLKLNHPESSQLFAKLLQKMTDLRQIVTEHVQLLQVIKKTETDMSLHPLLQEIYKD
The assay can be described thus: Transfection assay for PPAR receptors (GAL4-LBD luciferase reporter), PPAR gamma. The following applies: 18–24 hrs. The protocol:
as §1
as §2, with “OPTI-MEM I Reduced Serum Medium was purchased from GIBCO (Cat. No. 31985).” left out

Setting [1] is: Table 1, HEK293 cells co-transfected with PPAR LBD-GAL4 and GAL4 (UAS) luciferase reporter.
[2] abbreviates: Table 2, compounds of interest, HEK293 cells, PPAR LBD-GAL4 luciferase reporter.

Take `Cc1cc(SCc2nc(-c3ccc(C(F)(F)F)cc3)ns2)ccc1OCC(=O)O` [Compound 1, {2-Methyl-4-[3-(4-trifluoromethyl-phenyl)-[1,2,4]thiadiazol-5-ylmethylsulfanyl]-phenoxy}-acetic acid]: the EC50 worked out at 468 nM on PPAR alpha (setting [1]) and 10 nM on PPAR delta.
As to `CC(C)(Oc1ccc(SCc2nc(-c3ccc(C(F)(F)F)cc3)ns2)cc1)C(=O)O` [Compound 2, 2-Methyl-2-{4-[3-(4-trifluoromethyl-phenyl)-[1,2,4]thiadiazol-5-ylmethylsulfanyl]-phenoxy}-propionic acid], the results for the EC50 on PPAR alpha (setting [1]) and on PPAR delta were 155 nM and 20 nM, respectively.
As to `Cc1cc(SCc2nc(-c3ccc(C(F)(F)F)cc3)ns2)ccc1OC(C)(C)C(=O)O` [Compound 3, 2-Methyl-2-{2-methyl-4-[3-(4-trifluoromethyl-phenyl)-[1,2,4]thiadiazol-5-ylmethylsulfanyl]-phenoxy}-propionic acid], the EC50 on PPAR alpha (setting [1]) came out at 87 nM; at PPAR delta, 7.5 nM.
On to `Cc1cc(SCc2nc(-c3ccc(OC(F)(F)F)cc3)ns2)ccc1OC(C)(C)C(=O)O` [Compound 4, 2-Methyl-2-{2-methyl-4-[3-(4-trifluoromethoxy-phenyl)-[1,2,4]thiadiazol-5-ylmethylsulfanyl]-phenoxy}-propionic acid], for which the results for the EC50 on PPAR alpha (setting [1]) and at PPAR gamma (setting [1]) were 33 nM and 11600 nM, respectively.
In the case of `Cc1ccc(-c2nsc(CSc3ccc(OC(C)(C)C(=O)O)c(C)c3)n2)cc1` [Compound 5, 2-Methyl-2-[2-methyl-4-(3-p-tolyl-[1,2,4]thiadiazol-5-ylmethylsulfanyl)-phenoxy]-propionic acid], the EC50 at PPAR alpha (setting [1]) is 222 nM; on PPAR delta, 47 nM; on PPAR gamma (setting [1]), above 3000 nM.
`Cc1cc(SCc2nc(-c3ccc(C(C)(C)C)cc3)ns2)ccc1OC(C)(C)C(=O)O` [Compound 6, 2-{4-[3-(4-tert-Butyl-phenyl)-[1,2,4]thiadiazol-5-ylmethylsulfanyl]-2-methyl-phenoxy}-2-methyl-propionic acid]: the EC50 is 64 nM on PPAR alpha (setting [1]), 93 nM at PPAR delta and above 3000 nM on PPAR gamma (setting [1]).
For `Cc1cc(SCc2nc(-c3ccc(Cl)cc3)ns2)ccc1OC(C)(C)C(=O)O` [Compound 7, 2-{4-[3-(4-Chloro-phenyl)-[1,2,4]thiadiazol-5-ylmethylsulfanyl]-2-methyl-phenoxy}-2-methyl-propionic acid], the EC50 at PPAR alpha (setting [1]) is 186 nM; on PPAR delta, 18 nM; on PPAR gamma (setting [1]), above 3000 nM.
`Cc1cc(SCc2nc(-c3ccc(OC(F)(F)F)c(Cl)c3)ns2)ccc1OC(C)(C)C(=O)O` [Compound 8, 2-{4-[3-(3-Chloro-4-trifluoromethoxy-phenyl)-[1,2,4]thiadiazol-5-ylmethylsulfanyl]-2-methyl-phenoxy}-2-methyl-propionic acid]: the EC50 at PPAR alpha (setting [1]) is 28 nM; at PPAR delta, 2.8 nM; on PPAR gamma (setting [1]), above 3000 nM.
Consider `Cc1cc(SCc2nc(-c3ccc(Cl)c(Cl)c3)ns2)ccc1OC(C)(C)C(=O)O` [Compound 9, 2-{4-[3-(3,4-Dichloro-phenyl)-[1,2,4]thiadiazol-5-ylmethylsulfanyl]-2-methyl-phenoxy}-2-methyl-propionic acid], for which the EC50 at PPAR alpha (setting [1]) is 104 nM; at PPAR delta, 13 nM; at PPAR gamma (setting [1]) it was above 3000 nM.
On to `Cc1cc(SCc2nc(-c3ccc(Cl)cc3Cl)ns2)ccc1OC(C)(C)C(=O)O` [Compound 10, 2-{4-[3-(2,4-Dichloro-phenyl)-[1,2,4]thiadiazol-5-ylmethylsulfanyl]-2-methyl-phenoxy}-2-methyl-propionic acid], for which the EC50 was 476 nM on PPAR alpha (setting [1]), 102 nM at PPAR delta and above 3000 nM at PPAR gamma (setting [1]).
As to `Cc1ccc(-c2nsc(CSc3ccc(OC(C)(C)C(=O)O)c(C)c3)n2)cc1C` [Compound 11, 2-{4-[3-(3,4-Dimethyl-phenyl)-[1,2,4]thiadiazol-5-ylmethylsultanyl]-2-methyl-phenoxy}-2-methyl-propionic acid], the EC50 was determined as 115 nM at PPAR alpha (setting [1]) and 93 nM at PPAR delta.
For `Cc1ccc(-c2nsc(CSc3ccc(OC(C)(C)C(=O)O)c(C)c3)n2)cc1Cl` [Compound 12, 2-{4-[3-(3-Chloro-4-methyl-phenyl)-[1,2,4]thiadiazol-5-ylmethylsulfanyl]-2-methyl-phenoxy}-2-methyl-propionic acid], the EC50 on PPAR alpha (setting [1]) was 68 nM; at PPAR delta it was 27 nM; at PPAR gamma (setting [1]), 669 nM.
For the compound `Cc1cc(SCc2nsc(-c3ccc(OC(F)(F)F)cc3)n2)ccc1OC(C)(C)C(=O)O` [Compound 17, 2-Methyl-2-{2-methyl-4-[5-(4-trifluoromethoxy-phenyl)-[1,2,4]thiadiazol-3-ylmethylsulfanyl]-phenoxy}-propionic acid], the EC50 was found to be 656 nM on PPAR alpha (setting [1]) and 58 nM at PPAR delta.
On to `Cc1cc(OCc2nc(-c3ccc(C(F)(F)F)cc3)ns2)ccc1OC(C)(C)C(=O)O` [Compound 23, 2-Methyl-2-{2-methyl-4-[3-(4-trifluoromethyl-phenyl)-[1,2,4]thiadiazol-5-ylmethoxy]-phenoxy}-propionic acid], for which the EC50 on PPAR alpha (setting [1]) is 94 nM; on PPAR gamma (setting [1]), above 3000 nM.
For `Cc1cc(SCCc2nc(-c3ccc(C(F)(F)F)cc3)ns2)ccc1OC(C)(C)C(=O)O` [Compound 28, 2-Methyl-2-(2-methyl-4-{2-[3-(4-trifluoromethyl-phenyl)-[1,2,4]thiadiazol-5-yl]-ethylsulfanyl}-phenoxy)-propionic acid] the same measures were 37.3 nM and 465 nM.
For the compound `Cc1cc(SCc2cc(-c3ccc(C(F)(F)F)cc3)sn2)ccc1OCC(=O)O` [Compound b, {2-Methyl-4-[5-(4-trifluoromethyl-phenyl)-isothiazol-3-ylmethylsulfanyl]-phenoxy}-acetic acid], the EC50 at PPAR alpha (setting [2]) and at PPAR gamma (setting [2]) was above 3000 nM in each case.
Turning to `Cc1cc(SCc2cc(-c3ccc(C(F)(F)F)cc3)ns2)ccc1OCC(=O)O` [Compound c, {2-Methyl-4-[3-(4-trifluoromethyl-phenyl)-isothiazol-5-ylmethylsulfanyl]-phenoxy}-acetic acid], the EC50 on PPAR alpha (setting [2]) was above 1000 nM; at PPAR gamma (setting [2]) it was above 3000 nM.
In the case of `Cc1cc(SCc2cc(-c3ccc(C(F)(F)F)cc3)no2)ccc1OCC(=O)O` [Compound f, {2-Methyl-4-[3-(4-trifluoromethyl-phenyl)-isoxazol-5-ylmethylsulfanyl]-phenoxy}-acetic acid], the EC50 at PPAR alpha (setting [2]) and at PPAR gamma (setting [2]) was above 3000 nM each time.
As for `Cc1cc(SCc2cc(-c3ccc(C(F)(F)F)cc3)on2)ccc1OCC(=O)O` [Compound g, {2-Methyl-4-[5-(4-trifluoromethyl-phenyl)-isoxazol-3-ylmethylsulfanyl]-phenoxy}-acetic acid], the results for the EC50 on PPAR alpha (setting [2]) and on PPAR gamma (setting [2]) were 2210 nM and above 3000 nM, respectively.
Take “{2-Methyl-4-[5-(4-trifluoromethyl-phenyl)-pyridin-3-ylmethylsulfanyl]-phenoxy}-acetic acid [Compound e]”: the EC50 at PPAR alpha (setting [2]) was above 3000 nM.

Source of the values: patent US7015329B2 (Janssen Pharmaceutica N. V., priority 2003, dated 2006).
